In patent publication US20240287138A1, “CYCLIC PEPTIDES FOR INHIBITING TNF RECEPTOR 1 ACTIVITY” (Merck Sharp & Dohme LLC, priority 2023, published 2024):
pIC50, pKd: −log10 of the molar value. Numbered stars: 1 amine (or outer) side, 2 acyl side, 3 side chain; on linkers, the order of the positions; unused ones are H or OH. Bridge positions count the residues as written; N and C are the ends. Square brackets hold non-standard residues; d marks the D form. Peptide text beside a SMILES is read from it. * marks the point of attachment. Trp(βS-Me,7-OMe) = COc1cccc2c([C@H](C)[C@H](N)C(=O)O)c[nH]c12; Trp(4-Cl) = N[C@@H](Cc1c[nH]c2cccc(Cl)c12)C(=O)O; Trp(7-CN) = N#Cc1cccc2c(C[C@H](N)C(=O)O)c[nH]c12; Trp(7-Cl) = N[C@@H](Cc1c[nH]c2c(Cl)cccc12)C(=O)O; Phe(4-CONH2) = NC(=O)c1ccc(C[C@H](N)C(=O)O)cc1; Phe(4-COOH) = N[C@@H](Cc1ccc(C(=O)O)cc1)C(=O)O; Trp(7-aza) = N[C@@H](Cc1c[nH]c2ncccc12)C(=O)O; X10 = O=C([C@H](Cc1ccnc2ccccc12)N[*:1])[*:2]; Pip(5R-OH) = O=C(O)[C@@H]1CC[C@@H](O)CN1; X1 = O=C([C@@H]1CC[C@H](N[*:1])C1)[*:2]; N(CH2CH2COOH)Gly = O=C(O)CCNCC(=O)O; Pip(4-aza) = O=C(O)[C@@H]1CNCCN1; 4Pal = N[C@@H](Cc1ccncc1)C(=O)O; NMeE = CN[C@@H](CCC(=O)O)C(=O)O; dHyp = O=C(O)[C@H]1C[C@H](O)CN1; Ahp(2) = CCCCC[C@H](N)C(=O)O; Pip = O=C(O)[C@@H]1CCCCN1; αMeS = C[C@](N)(CO)C(=O)O; Nle = CCCC[C@H](N)C(=O)O; Ethyl(2-NH2) = NCC*; Sar = CNCC(=O)O

Experiments:
human TNFR2 ECD protein = biological target: T1, human TNFR2 ECD protein (Homo sapiens, UniProt P20333); experiment: SPR off-target binding (selectivity) to human TNFR2 ECD
T1 construct: HRV 3C protease cleavage site (C); 6His (C, cleaved yes); made in house; host or cells: Sf21 insect cells (baculovirus), secreted
T1 sequence (P20333 23-257): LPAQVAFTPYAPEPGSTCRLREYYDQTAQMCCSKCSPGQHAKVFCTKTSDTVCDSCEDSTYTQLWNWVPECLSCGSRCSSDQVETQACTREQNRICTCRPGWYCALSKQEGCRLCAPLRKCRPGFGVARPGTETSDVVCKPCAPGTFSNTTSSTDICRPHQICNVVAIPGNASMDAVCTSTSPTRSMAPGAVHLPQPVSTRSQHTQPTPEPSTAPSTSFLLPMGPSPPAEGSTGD
How it was run: (§1)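 Peptides are tested against captured biotin-tagged human TNFR1 ECD, with parallel TNFR2 ECD binding to check selectivity. Buffer: 10 mM HEPES pH 7.4, 150 mM NaCl, 3 mM EDTA, 0.05% P20, 2% DMSO.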

[1] = biological target: T2, human soluble TNFR1 (sTNFR1) (Homo sapiens, UniProt P19438); experiment: Human sTNFR1-peptide displacement assay (LanthaScreen Eu TR-FRET binding assay)
T2 construct: made in house; host or cells: Sf21 (baculovirus)
T2 sequence (P19438 with tags, fused parts or gaps): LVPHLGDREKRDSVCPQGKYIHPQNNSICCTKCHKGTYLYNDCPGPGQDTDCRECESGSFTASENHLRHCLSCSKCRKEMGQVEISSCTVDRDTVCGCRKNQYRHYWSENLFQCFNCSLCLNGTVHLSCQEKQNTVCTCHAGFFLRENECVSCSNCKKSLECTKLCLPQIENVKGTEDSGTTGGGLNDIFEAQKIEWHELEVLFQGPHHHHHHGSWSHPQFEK
How it was run: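 Readout is the 665/615 nm TR-FRET ratio (Eu anti-His donor, streptavidin-Alexa647 acceptor), normalized to DMSO and saturating displacer, fit by Morrison-based five-parameter logistic for Kd^app. His-tagged sTNFR1 (1-211) prebound to 100 nM biotinylated peptide SEQ ID NO.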

[2] = biological target: T3, human TNFR1 extracellular domain (ECD) protein (Homo sapiens, UniProt P19438); experiment: SPR binding affinity to captured human TNFR1 ECD
T3 construct: HRV 3C protease cleavage site (C); 6His (C, cleaved yes); made in house; host or cells: Sf21 insect cells (baculovirus), secreted
T3 sequence (P19438 30-211): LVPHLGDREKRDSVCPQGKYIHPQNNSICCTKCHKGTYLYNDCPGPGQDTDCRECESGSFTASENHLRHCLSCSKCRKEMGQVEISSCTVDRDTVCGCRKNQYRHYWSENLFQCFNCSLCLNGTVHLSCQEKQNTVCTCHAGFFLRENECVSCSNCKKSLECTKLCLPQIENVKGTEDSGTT
How it was run: as §1

CCCC[C@@H]1NC(=O)[C@@H]2CC[C@@H](C2)NC(=O)[C@H]([C@@H](C)c2c[nH]c3c(OC)cccc23)NC(=O)CN(C)C(=O)[C@H](Cc2ccc(O)cc2)NC(=O)[C@H](Cc2ccc(C(=O)O)cc2)NC(=O)[C@](C)(CO)NC(=O)[C@H](Cc2c[nH]c3c(Cl)cccc23)NC(=O)[C@H](Cc2ccncc2)NC(=O)[C@H](CC(N)=O)NC(=O)CN(C)C(=O)[C@H](Cc2c[nH]c3ccccc23)NC(=O)[C@@H]2CNCCN2C(=O)[C@H](Cc2ccncc2)NC1=O [SEQ ID NO. 141] (cyclo([4Pal][Trp(7-Cl)][αMeS][Phe(4-COOH)]Y[Sar][Trp(βS-Me,7-OMe)][X1][Nle][4Pal][Pip(4-aza)]W[Sar]N))
pKd (human TNFR2 ECD protein): < 6.00
pKd [1]: 9.77
pKd [2]: 10.22

CCCC[C@@H]1NC(=O)[C@@H]2CC[C@@H](C2)NC(=O)[C@H]([C@@H](C)c2c[nH]c3c(OC)cccc23)NC(=O)CN(C)C(=O)[C@H](Cc2ccc(O)cc2)NC(=O)[C@H](Cc2ccc(C(N)=O)cc2)NC(=O)[C@](C)(CO)NC(=O)[C@H](Cc2c[nH]c3c(Cl)cccc23)NC(=O)[C@H](Cc2ccncc2)NC(=O)[C@H](CC(N)=O)NC(=O)[C@H](CCC(=O)O)N(C)C(=O)[C@H](Cc2c[nH]c3ccccc23)NC(=O)[C@@H]2CC[C@@H](O)CN2C(=O)[C@H](Cc2ccncc2)NC1=O [SEQ ID NO. 163] (cyclo([4Pal][Trp(7-Cl)][αMeS][Phe(4-CONH2)]Y[Sar][Trp(βS-Me,7-OMe)][X1][Nle][4Pal][Pip(5R-OH)]W[NMeE]N))
pKd (human TNFR2 ECD protein): < 6.00
pKd [1]: 10.30
pKd [2]: 10.30

CCCC[C@@H]1NC(=O)CSC[C@@H](C(N)=O)NC(=O)[C@H]([C@@H](C)c2c[nH]c3c(OC)cccc23)NC(=O)CN(C)C(=O)[C@H](Cc2ccc(O)cc2)NC(=O)[C@H](Cc2ccc(C(=O)O)cc2)NC(=O)[C@](C)(CO)NC(=O)[C@H](Cc2c[nH]c3c(Cl)cccc23)NC(=O)[C@H](Cc2ccncc2)NC(=O)[C@H](CC(N)=O)NC(=O)CN(CCC(=O)O)C(=O)[C@H](Cc2c[nH]c3ncccc23)NC(=O)[C@@H]2CCCCN2C(=O)[C@H](Cc2ccncc2)NC1=O [SEQ ID NO. 220] ({CH2CO}-[Nle][4Pal][Pip][Trp(7-aza)][N(CH2CH2COOH)Gly]N[4Pal][Trp(7-Cl)][αMeS][Phe(4-COOH)]Y[Sar][Trp(βS-Me,7-OMe)]C-NH2; thioether N-14)
pKd (human TNFR2 ECD protein): < 6.00
pKd [1]: 9.26
pKd [2]: 9.60

CCCCC[C@@H]1NC(=O)[C@@H]2CC[C@@H](C2)NC(=O)[C@H]([C@@H](C)c2c[nH]c3c(OC)cccc23)NC(=O)CN(C)C(=O)[C@H](Cc2ccc(OC)cc2)NC(=O)[C@H](Cc2ccc(C(N)=O)cc2)NC(=O)[C@](C)(CO)NC(=O)[C@H](Cc2c[nH]c3c(C#N)cccc23)NC(=O)[C@H](Cc2ccncc2)NC(=O)[C@H](CC(N)=O)NC(=O)[C@H]2C[C@H](O)CN2C(=O)[C@H](Cc2c[nH]c3ccccc23)NC(=O)[C@@H]2CNCCN2C(=O)[C@H](Cc2ccncc2)NC1=O [SEQ ID NO. 200] (cyclo([4Pal][Trp(7-CN)][αMeS][Phe(4-CONH2)]Y(Me)[Sar][Trp(βS-Me,7-OMe)][X1][Ahp(2)][4Pal][Pip(4-aza)]W[dHyp]N))
pKd (human TNFR2 ECD protein): < 6.00
pKd [1]: 10.05
pKd [2]: 10.70

CN1CC(=O)N[C@@H](Cc2c[nH]c3cccc(Cl)c23)C(=O)N[C@H](C(N)=O)CSCC(=O)N[C@@H](CCC(N)=O)C(=O)N[C@@H](Cc2ccncc2)C(=O)N[C@@H](CO)C(=O)N[C@@H](Cc2c[nH]c3ncccc23)C(=O)N(C)[C@@H](CCC(=O)O)C(=O)N[C@@H](CC(N)=O)C(=O)N[C@@H](Cc2ccncc2)C(=O)N[C@@H](Cc2c[nH]c3c(Cl)cccc23)C(=O)N[C@@](C)(CO)C(=O)N[C@@H](Cc2ccc(C(=O)O)cc2)C(=O)N[C@@H](Cc2ccc(O)cc2)C1=O [SEQ ID NO. 239] ({CH2CO}-Q[4Pal]S[Trp(7-aza)][NMeE]N[4Pal][Trp(7-Cl)][αMeS][Phe(4-COOH)]Y[Sar][Trp(4-Cl)]C-NH2; thioether N-14)
pKd (human TNFR2 ECD protein): < 6.00
pIC50 [1]: 9.28
pKd [1]: 9.21
pKd [2]: 9.52

CN1CC(=O)N[C@@H](CC(N)=O)C(=O)N[C@@H](Cc2ccc(O)cc2)C(=O)N[C@@H](Cc2c[nH]c3ccccc23)C(=O)N[C@@H](CO)C(=O)N[C@@H](Cc2ccc(O)cc2)C(=O)N[C@@H](Cc2ccc(O)cc2)C(=O)N(C)CC(=O)N[C@@H](Cc2c[nH]c3ccccc23)C(=O)N[C@H](C(=O)NCC(=O)N[C@@H](CCC(=O)O)C(=O)N[C@@H](CCC(=O)O)C(N)=O)CSCC(=O)N[C@@H](Cc2ccccc2)C(=O)N[C@@H](Cc2ccc(O)cc2)C(=O)N[C@@H](CO)C(=O)N[C@@H](Cc2c[nH]c3ccccc23)C1=O [SEQ ID NO. 289] ({CH2CO}-FYSW[Sar]NYWSYY[Sar]WCGEE-NH2; thioether N-14)
pKd (human TNFR2 ECD protein): < 6.00
pIC50 [1]: 8.01
pKd [2]: 8.13

COc1cccc2c([C@H](C)[C@@H]3NC(=O)CN(C)C(=O)[C@H](Cc4ccc(C(=O)O)cc4)NC(=O)[C@H](Cc4ccc(C(N)=O)cc4)NC(=O)[C@](C)(CO)NC(=O)[C@H](Cc4c[nH]c5c(Cl)cccc45)NC(=O)[C@H](Cc4ccc(C(=O)O)cc4)NC(=O)[C@H](CC(N)=O)NC(=O)[C@H]4C[C@H](O)CN4C(=O)[C@H](Cc4c[nH]c5ncccc45)NC(=O)[C@@H]4CC[C@@H](O)CN4C(=O)[C@H](Cc4ccncc4)NC(=O)[C@H](COCCN)NC(=O)[C@@H]4CC[C@@H](C4)NC3=O)c[nH]c12 [SEQ ID NO. 148] (cyclo([4Pal][Pip(5R-OH)][Trp(7-aza)][dHyp]N[Phe(4-COOH)][Trp(7-Cl)][αMeS][Phe(4-CONH2)][Phe(4-COOH)][Sar][Trp(βS-Me,7-OMe)][X1]S(Ethyl(2-NH2))))
pKd (human TNFR2 ECD protein): < 6.00
pKd [1]: 9.05
pKd [2]: 8.96

CCCC[C@@H]1NC(=O)[C@@H]2CC[C@@H](C2)NC(=O)[C@H]([C@@H](C)c2c[nH]c3c(OC)cccc23)NC(=O)CN(C)C(=O)[C@H](Cc2ccc(O)cc2)NC(=O)[C@H](Cc2ccc(C(=O)O)cc2)NC(=O)[C@](C)(CO)NC(=O)[C@H](Cc2c[nH]c3c(Cl)cccc23)NC(=O)[C@H](Cc2ccc(C(=O)O)cc2)NC(=O)[C@H](CC(N)=O)NC(=O)[C@H](CCC(=O)O)N(C)C(=O)[C@H](Cc2c[nH]c3ccccc23)NC(=O)[C@@H]2CNCCN2C(=O)[C@H](Cc2ccncc2)NC1=O [SEQ ID NO. 288] (cyclo([4Pal][Pip(4-aza)]W[NMeE]N[Phe(4-COOH)][Trp(7-Cl)][αMeS][Phe(4-COOH)]Y[Sar][Trp(βS-Me,7-OMe)][X1][Nle]))
pKd (human TNFR2 ECD protein): < 6.00
pIC50 [1]: 9.70
pKd [1]: 9.96
pKd [2]: 10.00

C[C@@]1(CO)NC(=O)[C@H](Cc2c[nH]c3ncccc23)NC(=O)[C@H](Cc2ccncc2)NC(=O)[C@H](CC(N)=O)NC(=O)[C@H]2CCCN2C(=O)[C@H](Cc2ccnc3ccccc23)NC(=O)[C@H](CO)NC(=O)[C@H](Cc2ccncc2)NC(=O)[C@H](CCC(N)=O)NC(=O)CSC[C@@H](C(N)=O)NC(=O)[C@H](Cc2c[nH]c3cccc(Cl)c23)NC(=O)[C@@H]2CCCN2C(=O)[C@H](Cc2ccc(O)cc2)NC(=O)[C@H](Cc2ccc(C(=O)O)cc2)NC1=O [SEQ ID NO. 278] ({CH2CO}-Q[4Pal]S[X10][dP]N[4Pal][Trp(7-aza)][αMeS][Phe(4-COOH)]YP[Trp(4-Cl)]C-NH2; thioether N-14)
pKd (human TNFR2 ECD protein): < 6.00
pIC50 [1]: 8.06
pKd [2]: 7.89

CCCC[C@@H]1NC(=O)CSC[C@@H](C(N)=O)NC(=O)[C@H]([C@@H](C)c2c[nH]c3c(OC)cccc23)NC(=O)CN(C)C(=O)[C@H](Cc2ccc(O)cc2)NC(=O)[C@H](Cc2ccc(C(=O)O)cc2)NC(=O)[C@](C)(CO)NC(=O)[C@H](Cc2c[nH]c3c(Cl)cccc23)NC(=O)[C@H](Cc2ccncc2)NC(=O)[C@H](CC(N)=O)NC(=O)[C@H]2CCCN2C(=O)[C@H](Cc2c[nH]c3ccccc23)NC(=O)[C@@H]2CC[C@@H](O)CN2C(=O)[C@H](Cc2ccncc2)NC1=O [SEQ ID NO. 203] ({CH2CO}-[Nle][4Pal][Pip(5R-OH)]W[dP]N[4Pal][Trp(7-Cl)][αMeS][Phe(4-COOH)]Y[Sar][Trp(βS-Me,7-OMe)]C-NH2; thioether N-14)
pKd (human TNFR2 ECD protein): < 6.00
pKd [1]: 9.51
pKd [2]: 10.00
